Target: T1, urease (from jack beans) (Canavalia ensiformis, UniProt P07374)
T1 construct: urease (from jack beans); lyophilized 5 U/mg for urea assay in serum; purchased Merck KGaA, Germany; host or cells: jack beans (natural source)
Assay: odor-preventing effect: ammonia release from urea/urease solution, read with a diffusion tube
Format: biochemical
Details: 2 g composition, 30 mg urease, 50 ml 0.9% NaCl with 8.56 g/l urea, 23° C.
Procedure: 100 g lots of water-absorbing polymer from Example 1 were mixed in a tumble mixer with different amounts of N-cyclohexylthiophosphoramide, N-(n-butyl)thiophosphoramide or N-(n-propyl)thiophosphoramide, for 20 minutes each.
To determine the odor-preventing effect, 2 g of each of the compositions produced above were placed in a 100 ml Erlenmeyer flask and admixed with a freshly prepared solution of 30 mg of urease (from jack beans; lyophilized 5 U/mg for urea assay in serum; Merck KGaA, Germany) and 50 ml of 0.9% sodium chloride solution, the sodium chloride solution containing 8.56 g/l of urea, and sealed with a stopper having an internal diffusion tublet (Drager® Röhrchen; ammonia 20/a-D, 20 to 1500 ppm*h). The measured value was read off every 30 minutes. The measurement was discontinued after 6 hours. The test was carried out at 23° C.

[1] = 0.01 % by weight substituted thiophosphoramide in composition with water-absorbing polymer
[2] = 0.05 % by weight substituted thiophosphoramide in composition with water-absorbing polymer
[3] = 0.15 % by weight substituted thiophosphoramide in composition with water-absorbing polymer
[4] = 0.25 % by weight substituted thiophosphoramide in composition with water-absorbing polymer
[5] = 0.35 % by weight substituted thiophosphoramide in composition with water-absorbing polymer
[6] = 0.50 % by weight substituted thiophosphoramide in composition with water-absorbing polymer
[7] = 1.50 % by weight substituted thiophosphoramide in composition with water-absorbing polymer

T1 sequence (P07374 whole entry, looked up): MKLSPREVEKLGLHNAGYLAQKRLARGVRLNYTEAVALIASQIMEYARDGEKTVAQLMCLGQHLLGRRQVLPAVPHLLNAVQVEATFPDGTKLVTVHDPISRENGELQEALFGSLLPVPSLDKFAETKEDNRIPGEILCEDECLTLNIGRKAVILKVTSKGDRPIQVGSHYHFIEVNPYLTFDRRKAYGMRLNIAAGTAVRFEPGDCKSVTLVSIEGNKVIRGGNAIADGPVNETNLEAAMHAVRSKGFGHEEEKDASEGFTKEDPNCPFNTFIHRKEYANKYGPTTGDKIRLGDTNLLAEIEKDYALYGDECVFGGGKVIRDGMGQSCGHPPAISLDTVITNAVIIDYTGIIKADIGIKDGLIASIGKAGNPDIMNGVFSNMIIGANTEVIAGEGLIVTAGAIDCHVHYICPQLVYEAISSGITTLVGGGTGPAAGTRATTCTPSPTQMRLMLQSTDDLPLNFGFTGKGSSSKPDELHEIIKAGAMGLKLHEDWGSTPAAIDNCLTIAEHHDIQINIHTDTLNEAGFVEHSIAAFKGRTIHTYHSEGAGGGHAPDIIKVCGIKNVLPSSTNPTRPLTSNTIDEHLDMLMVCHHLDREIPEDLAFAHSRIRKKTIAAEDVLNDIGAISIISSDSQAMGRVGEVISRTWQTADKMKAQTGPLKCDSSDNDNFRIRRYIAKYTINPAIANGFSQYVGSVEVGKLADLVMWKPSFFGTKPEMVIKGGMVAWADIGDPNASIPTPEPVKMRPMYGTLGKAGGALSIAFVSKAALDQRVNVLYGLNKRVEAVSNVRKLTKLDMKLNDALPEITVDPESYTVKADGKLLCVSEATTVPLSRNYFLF

Row | Compound | ammonia after 6 hours [1] | ammonia after 6 hours [2] | ammonia after 6 hours [3] | ammonia after 6 hours [4] | ammonia after 6 hours [5] | ammonia after 6 hours [6] | ammonia after 6 hours [7]
1 | NP(N)(=S)NC1CCCCC1 [R = cyclohexyl, N-cyclohexylthiophosphoramide, reference compound] | − (more than 50 ppm of ammonia after 6 hours) | − (more than 50 ppm of ammonia after 6 hours) | − (more than 50 ppm of ammonia after 6 hours) | − (more than 50 ppm of ammonia after 6 hours) | + (less than 50 ppm of ammonia after 6 hours) | + (less than 50 ppm of ammonia after 6 hours) | + (less than 50 ppm of ammonia after 6 hours)
2 | CCCCNP(N)(N)=S [R = n-butyl, N-(n-butyl)thiophosphoramide] | + (less than 50 ppm of ammonia after 6 hours) | + (less than 50 ppm of ammonia after 6 hours) | + (less than 50 ppm of ammonia after 6 hours) | + (less than 50 ppm of ammonia after 6 hours) | + (less than 50 ppm of ammonia after 6 hours) | + (less than 50 ppm of ammonia after 6 hours) | + (less than 50 ppm of ammonia after 6 hours)
3 | CCCNP(N)(N)=S [R = n-propyl, N-(n-propyl)thiophosphoramide] | + (less than 50 ppm of ammonia after 6 hours) | + (less than 50 ppm of ammonia after 6 hours) | + (less than 50 ppm of ammonia after 6 hours) | + (less than 50 ppm of ammonia after 6 hours) | + (less than 50 ppm of ammonia after 6 hours) | + (less than 50 ppm of ammonia after 6 hours) | + (less than 50 ppm of ammonia after 6 hours)

Source: patent US20080234646A1, “Odour-Preventing, Water-Absorbing Compositions” (priority 2005, published 2008)
